In EP1196153B1, “PROCESS FOR THE IMPROVEMENT OF SPERMATOZOA FERTILIZATION ACTIVITY” (Applied Research Systems ARS Holding N.V., priority 1999, dated 2001):

Tests used:
Assay type in all cases: cell-based, human
[1] = tested on: swim-up selected spermatozoa; experiment: Forward motility of LiCl treated swim-up selected spermatozoa; details: 10 µM, two hours, with or without different concentrations of LiCl; Fig. 7
Text: LiCl is also a known inhibitor of sperm cell motility.

spermatozoa [2] = experiment: Motility of spermatozoa in seminal liquid, evaluated blindly under the microscope (WHO manual)
Procedure: (§1) In the experiments the following examples are based on, standard methods of in vitro fertilization have been used. With regard to the details of these methods, reference is made to the "WHO manual" (WHO laboratory manual for the examination of human semen and sperm-cervical mucus interactions, 4th edtition, Cambridge University Press 1999). In particular, the direct swim-up method can be taken from pp. 104 to 106 of this manual.
Spermatozoa were prepared according to the standard procedures of IVF. Briefly, spermatozoa were prepared from 3 oligoasthenospermic subjects undergoing semen analysis for couple infertility after informed consent. 10 µM of the PI3K inhibitor LY294002 were added directly to the seminal liquid and incubated for 2 hours […] at 37°C and 5% CO2. The motility of the spermatozoa was then blindly evaluated under the microscope according to WHO manual procedures.
(§2) The compound was added in a concentration of 10 µM.

spermatozoa [3] = experiment: Sperm viability by eosin test and hypo-osmotic swelling; details: 100 µM
Procedure: The effect of 100µM of LY294002 on the viability of the spermatozoa was also assessed (see insert of Fig. 3).

[4] = tested on: swim-up selected spermatozoa; experiment: Forward motility of H2O2 treated swim-up selected spermatozoa; details: for forward motility: n=12
Procedure: It is well known that reactive oxygen species (ROS), which may be generated during sperm preparation for IVF, exert detrimental effects on sperm fertilization potential. In particular, among ROS, H2O2 strongly reduces motility when added to sperm samples at micromolar concentrations. Therefore, the effect of LY294002 on H2O2 treated sperm cells was evaluated. The compound was added to swim-up selected spermatozoa samples from oligoasthenospermic patients in amounts of 10 µM either alone or in combination with 200 µM of H2O2. […]

spermatozoa [5] = experiment: Computer aided sperm analysis (CASA) of sperm parameters; details: 10 µM; 12 oligoasthenospermic subjects; vs control sample; Fig. 6
Procedure: These parameters were determined by computer aided sperm analysis (CASA) in sperm samples from 12 different oligoasthenospermic subjects.

spermatozoa [6] = experiment: Total sperm cell recovery in swim-up selection; details: n=20
Procedure: as §1, §2
Table II summarizes the total sperm cell recovery in the swim-up, which was increased by 43% as compared to the control.

[7] = tested on: spermatozoa obtained by the swim-up method; experiment: Motility of spermatozoa after incubation and swim-up selection
Text: In the experiments the following examples are based on, standard methods of in vitro fertilization have been used. With regard to the details of these methods, reference is made to the "WHO manual" (WHO laboratory manual for the examination of human semen and sperm-cervical mucus interactions, 4th edtition, Cambridge University Press 1999). In particular, the direct swim-up method can be taken from pp. 104 to 106 of this manual. […]
Fig. 3 summarizes the results obtained in a similar experiment on samples from higher numbers of patients. The sperm cells were submitted to the swim-up selection method.
An improvement of percentage progressive motility after 2 hours of incubation of the sperm cells with LY294002 was clearly detectable, both on the rapid component (a) and on the rapid and slow component (a+b).
The experiments described above were performed on samples from oligoasthenospermic individuals. The effects on the stimulation of progressive motility by LY294002 are more pronounced the more serious the sperm pathology of patients is (oligospermia, asthenospermia, teratospermia). However, the effect of this compound could also be observed in normospermic subjects. […]

[8] = 10 µM, 2 hours of incubation, 12 individual patients, swim-up, Fig. 4

O=c1cc(N2CCOCC2)oc2c(-c3ccccc3)cccc12 [LY294002, 2-(4-morpholinyl)-8-phenyl-4H-1-benzopyran-4-one]
LiCl induced inhibition of sperm motility [1]: reversing the effect | rapid motility (a) of the spermatozoa in the seminal liquid (spermatozoa [2]; 10 µM, 2 hours, 37°C, 5% CO2, 3 oligoasthenospermic subjects, Fig. 1): increase of rapid motility | percentage of forward motility (rapid and slow component a + b) in the seminal liquid (spermatozoa [2]; 10 µM, 2 hours, 37°C, 5% CO2, 3 oligoasthenospermic subjects, Fig. 1B): increase | % Sperm Forward Motility, Sperm in Seminal Plasma (spermatozoa [2]; LY 10 µM added to seminal plasma, 20 oligoasthenospermic patients, control 35.7±5.1, p<0.001): 49.8±4.7% | sperm viability (spermatozoa [3]; 48 hours of incubation (not shown)): no effect on sperm viability | vitality of the cells (spermatozoa [3]; incubation for two hours, eosin test and hypo-osmotic swelling): did not alter the vitality | detrimental effects exerted by 200 µM H2O2 on sperm motility ([4]; 10 µM LY294002 added to the incubation medium): completely reversed | forward motility ([4]; 10 µM LY294002 in combination with 200 µM H2O2, P<0.002 vs H2O2): 52.6±5.5 (n=12) % | forward motility ([4]; 10 µM alone, oligoasthenospermic patients, control 45.4±5.0, P<0.0001 vs Control): 71.7±3.2 (n=12) % | average path velocity (VAP) (spermatozoa [5]): increased in a statistically significant manner | hyperactivated sperm fraction (HA) (spermatozoa [5]): increased in a statistically significant manner | percentage curvilinear velocity (VCL) (spermatozoa [5]): increased in a statistically significant manner | straight-line velocity (VSL) (spermatozoa [5]): increased in a statistically significant manner | increase of total sperm cell recovery in the swim-up vs control (spermatozoa [6]; 10 µM): 43% | Sperm recovery in swim up (spermatozoa [6]; LY 10 µM, control 13.3 ± 3.9, p<0.005): 19.0 ± 4.8 10^6 | percentage progressive motility, rapid and slow component (a+b) [7, 8]: improvement | percentage progressive motility, rapid component (a) [7, 8]: improvement | forward motility of spermatozoa ([7]; 10 µM, two hours, then swim-up selection, 88 randomly selected subjects, control 53.5 ± 2.0 %): 76.3 ± 1.5% | additional enhancement of spermatozoa motility ([7]; 100 µM compared with 10 µM, swim-up, Fig. 3): about 10% | progressive motility ([7]; 100 µM, 2 hours, then swim-up selection, 7 samples, Fig. 2): significant increase | activation at 10 µM ([7]; Homo sapiens, Spermatozoa, 10 µM, 21 patients vs control 40 patients, swim-up, Fig. 3, read-out: increase in the progressive motility as compared to the control): 58% | activation at 100 µM ([7]; Homo sapiens, Spermatozoa, 100 µM, 29 patients vs control 40 patients, swim-up, Fig. 3, read-out: increase of the motility as compared to the control): 67% | EC50 ([7]; Homo sapiens, Spermatozoa, samples from normospermic individuals, 0 to 1000 µM, swim-up, Fig. 5, read-out: EC50 (effect dose of 50%) on the rapid forward motility): ~1000 nM | % Sperm Forward Motility, Swim up-selected sperm ([7]; LY 10 µM added to seminal plasma, then swim-up, 20 oligoasthenospermic patients, control 54.2±4.5, p<0.001): 68.6±3.9%

OO [H2O2]
forward motility ([4]; 200 µM H2O2 alone, oligoasthenospermic patients, control 45.4±5.0, P<0.0001 vs Control): 26.5±4.9 (n=12) %
